Where a name gives a salt, the structure may show the parent alone.
What was measured:
human plasma kallikrein = human plasma kallikrein (Homo sapiens (Human), UniProt P03952); test: Determination of the plasma kallikrein activity (fluorogenic substrate H-Pro-Phe-Arg-AMC); format: biochemical; details: human plasma kallikrein 0.6 nM; 15 min preincubation; 30 min at 22° C.; some as mean values from multiple determinations
Protocol: a.1) Determination of the Plasma Kallikrein Activity
(§1) To determine the plasma kallikrein inhibition of the substances according to the invention, a biochemical test system is used which utilizes the reaction of a peptidic plasma kallikrein substrate to determine the enzymatic activity of human plasma kallikrein. Here, plasma kallikrein cleaves from the peptic plasma kallikrein substrate the C-terminal aminomethylcoumarin (AMC), the fluorescence of which is measured. The determinations are carried out in microtitre plates.
Test substances are dissolved in dimethyl sulphoxide and serially diluted in dimethyl sulphoxide (3000 μM to 0.0078 μM; resulting final concentrations in the test: 50 μM to 0.00013 μM). In each case 1 μl of the diluted substance solutions is placed into the wells of white microtitre plates from Greiner (384 wells). 20 μl of assay buffer (50 mM Tris/HCl pH 7.4; 100 mM sodium chloride solution; 5 mM of calcium chloride solution; 0.1% of bovine serum albumin) and 20 μl of plasma kallikrein from Kordia (0.6 nM in assay buffer) are then added successively. After 15 min of incubation, the enzyme reaction is started by addition of 20 μl of the substrate H-Pro-Phe-Arg-AMC dissolved in assay buffer (10 μM in assay buffer) from Bachem, the mixture is incubated at room temperature (22° C.) for 30 min and fluorescence is then measured (excitation: 360 nm, emission: 460 nm). The measured emissions of the test batches with test substance are compared to those of control batches without test substance (only dimethyl sulphoxide instead of test substance in dimethyl sulphoxide), and IC50 values are calculated from the concentration/activity relationships. Activity data from this test are listed in Table A below (some as mean values from multiple independent individual determinations): […]

human factor XIa = human factor XIa (Homo sapiens (Human), UniProt P03951); test: Measurement of FXIa inhibition (fluorogenic substrate Boc-Glu(OBzl)-Ala-Arg-AMC); format: biochemical; details: human factor XIa 0.45 nM; 15 min preincubation; 30 min at 22° C.; some as mean values from multiple determinations
Chain of human factor XIa (P03951 388-625): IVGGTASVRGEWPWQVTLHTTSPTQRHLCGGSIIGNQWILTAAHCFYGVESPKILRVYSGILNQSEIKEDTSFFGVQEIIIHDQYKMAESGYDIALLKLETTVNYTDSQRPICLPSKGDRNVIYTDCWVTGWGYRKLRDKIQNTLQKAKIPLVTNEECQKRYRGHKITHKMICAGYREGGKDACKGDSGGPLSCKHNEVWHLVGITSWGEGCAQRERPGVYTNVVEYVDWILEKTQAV
Chain of human factor XIa (P03951 19-387 partner): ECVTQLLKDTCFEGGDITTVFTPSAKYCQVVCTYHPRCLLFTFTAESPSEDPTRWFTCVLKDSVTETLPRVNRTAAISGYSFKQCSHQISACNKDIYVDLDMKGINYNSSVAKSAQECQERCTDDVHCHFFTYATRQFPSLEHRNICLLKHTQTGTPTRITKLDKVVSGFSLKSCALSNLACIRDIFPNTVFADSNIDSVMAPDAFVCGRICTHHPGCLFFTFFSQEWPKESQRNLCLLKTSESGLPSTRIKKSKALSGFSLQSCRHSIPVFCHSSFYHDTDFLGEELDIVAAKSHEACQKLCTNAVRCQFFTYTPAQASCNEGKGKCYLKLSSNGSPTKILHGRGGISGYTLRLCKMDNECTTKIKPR
Protocol: a.2) Measurement of FXIa Inhibition
as §1, with “The factor XIa” for “To determine the plasma kallikrein”, “invention is determined using” for “invention,”, “system” for “system is used”, “factor XIa” for “plasma kallikrein”, “factor XIa.” for “plasma kallikrein.”
Test substances are dissolved in dimethyl sulphoxide and serially diluted in dimethyl sulphoxide (3000 μM to 0.0078 μM; resulting final concentrations in the test: 50 μM to 0.00013 μM). In each case 1 μl of the diluted substance solutions is placed into the wells of white microtitre plates from Greiner (384 wells). 20 μl of assay buffer (50 mM of Tris/HCl pH 7.4; 100 mM of sodium chloride; 5 mM of calcium chloride; 0.1% of bovine serum albumin) and 20 μl of factor XIa from Kordia (0.45 nM in assay buffer) are then added successively. After 15 min of incubation, the enzyme reaction is started by addition of 20 μl of the factor XIa substrate Boc-Glu(OBzl)-Ala-Arg-AMC dissolved in assay buffer (10 μM in assay buffer) from Bachem, the mixture is incubated at room temperature (22° C.) for 30 min and fluorescence is then measured (excitation: 360 nm, emission: 460 nm). The measured emissions of the test batches with test substance are compared to those of control batches without test substance (only dimethyl sulphoxide instead of test substance in dimethyl sulphoxide), and IC50 values are calculated from the concentration/activity relationships. Activity data from this test are listed in Table B below (some as mean values from multiple independent individual determinations): […]

Chain of human plasma kallikrein (P03952 391-638): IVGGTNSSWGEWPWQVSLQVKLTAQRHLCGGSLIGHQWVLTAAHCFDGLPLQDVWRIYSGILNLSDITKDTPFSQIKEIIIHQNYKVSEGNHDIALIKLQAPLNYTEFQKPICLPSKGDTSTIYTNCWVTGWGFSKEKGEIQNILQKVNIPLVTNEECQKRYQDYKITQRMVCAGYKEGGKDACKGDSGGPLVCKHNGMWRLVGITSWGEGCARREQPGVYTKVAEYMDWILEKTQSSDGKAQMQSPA
Chain of human plasma kallikrein (P03952 20-390 partner): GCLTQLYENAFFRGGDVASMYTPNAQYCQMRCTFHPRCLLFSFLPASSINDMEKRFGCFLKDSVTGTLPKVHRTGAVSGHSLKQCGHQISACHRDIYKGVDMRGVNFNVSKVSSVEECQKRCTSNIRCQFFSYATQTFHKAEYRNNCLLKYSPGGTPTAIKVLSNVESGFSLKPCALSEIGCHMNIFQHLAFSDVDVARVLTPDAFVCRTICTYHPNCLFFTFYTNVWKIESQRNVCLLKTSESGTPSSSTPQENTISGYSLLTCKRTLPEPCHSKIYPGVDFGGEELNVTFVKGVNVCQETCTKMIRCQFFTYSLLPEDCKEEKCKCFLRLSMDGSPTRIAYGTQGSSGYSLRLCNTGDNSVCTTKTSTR

Row | IC50 (human plasma kallikrein) | IC50 (human factor XIa) | SMILES
1 | 5.6 nM | > 10000 nM | COc1cn(C(C(=O)Nc2ccn3ncc(C(N)=O)c3c2)C(C)CCCN)c(=O)cc1-c1cc(Cl)ccc1C#N (racemic) [Example 1, 5-({6-Amino-2-[4-(5-chloro-2-cyanophenyl)-5-methoxy-2-oxopyridin-1(2H)-yl]-3-methyl-hexanoyl}amino)pyrazolo[1,5-a]pyridine-3-carboxamidetrifluoroacetate]
2 | 1.8 nM | > 2000 nM | COc1cn([C@H](C(=O)Nc2ccn3ncc(C(N)=O)c3c2)C(C)CCCN)c(=O)cc1-c1cc(Cl)ccc1C#N (single isomer, unassigned) [Example 2, trifluoroacetate]
3 | 2.1 nM | > 2000 nM | COc1cn([C@H](C(=O)Nc2ccn3ncc(C(N)=O)c3c2)C(C)CCCN)c(=O)cc1-c1cc(Cl)ccc1C#N (single isomer, unassigned) [Example 3, trifluoroacetate]
